Results on 18 compounds are retold here after patent publication US11976083B2, “Inhibitors of peptidylarginine deiminases” (Gilead Sciences, Inc., priority 2020, dated 2024).

Structures are written as SMILES.

As a reminder, the IC50 is the concentration that gives 50% inhibition.

T1 sequence (Q9UM07 2-663): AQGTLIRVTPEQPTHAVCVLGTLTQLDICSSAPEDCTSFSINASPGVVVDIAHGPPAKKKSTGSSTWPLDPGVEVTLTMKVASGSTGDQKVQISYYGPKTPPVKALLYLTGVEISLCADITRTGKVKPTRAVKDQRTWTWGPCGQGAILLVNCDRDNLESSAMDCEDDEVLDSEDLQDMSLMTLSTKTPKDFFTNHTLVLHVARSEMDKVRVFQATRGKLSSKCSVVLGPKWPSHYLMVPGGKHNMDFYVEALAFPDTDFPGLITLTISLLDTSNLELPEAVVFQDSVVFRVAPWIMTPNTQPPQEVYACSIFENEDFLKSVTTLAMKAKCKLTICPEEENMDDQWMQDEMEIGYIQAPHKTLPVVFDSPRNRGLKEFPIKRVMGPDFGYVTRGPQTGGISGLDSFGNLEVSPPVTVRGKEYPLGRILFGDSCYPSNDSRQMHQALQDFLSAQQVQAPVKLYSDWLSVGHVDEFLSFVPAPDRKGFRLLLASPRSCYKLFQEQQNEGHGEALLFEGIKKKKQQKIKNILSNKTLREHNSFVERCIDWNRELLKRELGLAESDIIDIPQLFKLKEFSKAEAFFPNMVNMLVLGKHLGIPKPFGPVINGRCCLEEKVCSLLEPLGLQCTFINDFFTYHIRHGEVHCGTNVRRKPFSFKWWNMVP

The assay concerns the target T1, human PAD4 (Homo sapiens, UniProt Q9UM07).
T1 construct: human PAD4 (NM_012387), A2-P663, was PCR amplified; His-SUMO (N, cleaved yes); made in house; host or cells: E. coli BL21(DE3)
In words: In vitro PAD4 BAEE biochemical assay. The settings on record: BAEE substrate 3 mM, 5 nM PAD4, 2 mM calcium chloride; geometric mean of multiple experiments. The method in brief: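 Recombinant PAD4 (5 nM final) with 2 mM CaCl2 was preincubated with compound for 30 min at 25 °C in MOPS pH 7.6 buffer with DTT, then reacted with 3 mM BAEE for 2 h at 25 °C. Released ammonia was detected fluorimetrically with o-phthalaldehyde/DTT; IC50 from four-parameter fit, geometric mean of experiments.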
For `COc1cc(C(=O)N2C[C@H](N)[C@@H]3CC[C@H]2C3)cc2nc(-c3cc4ccc5nc4n3CCCCCC[C@@](c3ccccn3)(C(F)F)C(=O)N[C@@H]5C)n(C)c12` [Example 890, (8~{S},11~{R})-17-[5-[(1~{S},4~{R},5~{R})-4-amino-2-azabicyclo[3.2.1]octane-2-carbonyl]-7-methoxy-1-methyl-benzimidazol-2-yl]-8-(difluoromethyl)-11-methyl-8-(2-pyridyl)-1,10,19-triazatricyclo [10.5.2.0^{15,18}]nonadeca-12(19),13,15(18), 16-tetraen-9-one], the IC50 came out at 10 nM. As to `COc1cc(C(=O)N2C[C@H](N)[C@@H]3CC[C@H]2C3)cc2nc(-c3cc4ccc5nc4n3CCCCCC[C@@H](c3ccccn3)C(=O)N[C@@H]5C)n(C)c12` [Example 891, (8~{S),11~{R})-17-[5-[(1~{S},4~{R},5~{R})-4-amino-2-azabicyclo[3.2.1]octane-2-carbonyl]-7-methoxy-1-methyl-benzimidazol-2-yl]-11-methyl-8-(2-pyridyl)-1,10,19-triazatricyclo[10.5.2.0^ {15,18}]nonadeca-12(19), 13,15(18),16-tetraen-9-one], the IC50 stood at 13 nM. Take `COc1cc(C(=O)N2C[C@H](N)[C@@H]3CC[C@H]2C3)cc2nc(-c3cc4ccc5nc4n3CCCCCC[C@H](c3ccccn3)C(=O)N[C@@H]5C)n(C)c12` [Example 892, (8~{R},11~{R})-17-[5-[(1~{S},4~{R},5~{R})-4-amino-2-azabicyclo[3.2.1]octane-2-carbonyl]-7-methoxy-1-methyl-benzimidazol-2-yl]-11-methyl-8-(2-pyridyl)-1,10,19-triazatricyclo[10.5.2.0^{15,18}] nonadeca-12(19), 13,15(18),16-tetraen-9-one]: the IC50 stood at 27 nM. In the case of `COc1cc(C(=O)N2C[C@H](N)[C@@H]3CC[C@H]2C3)cc2nc(-c3cc4ccc5nc4n3CCC[C@H]3C[C@@H]3c3ccccc3C(=O)N[C@@H]5C)n(C)c12` [Example 893], the IC50 stood at 28 nM. In the case of `COc1cc(C(=O)N2C[C@H](N)[C@@H]3CC[C@H]2C3)cc2nc(-c3cc4ccc5nc4n3CCCCCc3c(F)cc(F)cc3C(=O)N[C@@H]5C)n(C)c12` [Example 894, (2~{R})-17-[5-[(1~{S},4~ {R},5~{R})-4-amino-2-azabicyclo[3.2.1]octane-2-carbonyl]-7-methoxy-1-methyl-benzimidazol-2-yl]-7,9-difluoro-2-methyl-3,16,22-triazatetracyclo [14.5.2.0^{5,10).0^{19,23}] tricosa-1(22),5(10),6,8,17, 19(23),20-heptaen-4-one], the IC50 came out at 72 nM. Turning to `C[C@H]1NC(=O)c2ccc(Cl)nc2CCCCCn2c(-c3nc4cc(C(=O)N5C[C@H](N)[C@@H]6CC[C@H]5C6)cc(F)c4n3C3CC3)cc3cc(F)c1nc32` [Example 895, (2~{R})-17-[5-[(1~{S},4~{R}, 5~{R})-4-amino-2-azabicyclo [3.2.1]octane-2-carbonyl]-1-cyclopropyl-7-fluoro-benzimidazol-2-yl]-8-chloro-21-fluoro-2-methyl-3,9,16,22-tetrazatetracyclo[14.5.2.0^ {5,10).0^{19,23}]tricosa-1(22),5(10),6,8,17,19(23),20-heptaen-4-one], the IC50 came out at 34 nM. Next, `COc1cc(C(=O)N2C[C@H](N)[C@@H]3CC[C@H]2C3)cc2nc(-c3cc4ccc5nc4n3CCCCCc3cc(C(F)F)ccc3C(=O)N[C@@H]5C)n(C)c12` [Example 896, (2~{R})-17-[5-[(1~{S),4~{R},5~ {R})-4-amino-2-azabicyclo [3.2.1]octane-2-carbonyl]-7-methoxy-1-methyl-benzimidazol-2-yl]-8-(difluoromethyl)-2-methyl-3,16,22-triazatetracyclo [14.5.2.0^{5,10}.0^{19,23}] tricosa-1(22),5(10),6,8,17,19(23), 20-heptaen-4-one]: 56 nM. Take `COc1cc(C(=O)N2C[C@H](N)[C@@H]3CC[C@H]2C3)cc2nc(-c3cc4ccc5nc4n3CCCCCc3ccc(F)c(F)c3C(=O)N[C@@H]5C)n(C)c12` [Example 897, (2~{R})-17-[5-[(1~{S),4~{R}, 5~{R})-4-amino-2-azabicyclo [3.2.1]octane-2-carbonyl]-7-methoxy-1-methyl-benzimidazol-2-yl]-6,7-difluoro-2-methyl-3,16,22-triazatetracyclo [14.5.2.0^{5,10}.0^{19,23}] tricosa-1(22),5(10),6,8,17, 19(23),20-heptaen-4-one]: the IC50 worked out at 40 nM.

In the case of `COc1cc(C(=O)N2C[C@H](N)[C@@H]3CC[C@H]2C3)cc2nc(-c3cc4ccc5nc4n3CCCCCc3c(ccc(Cl)c3F)C(=O)N[C@@H]5C)n(C)c12` [Example 898, (2~{R})-17-[5-[(1~{S},4~{R},5~ {R})-4-amino-2-azabicyclo [3.2.1]octane-2-carbonyl]-7-methoxy-1-methyl-benzimidazol-2-yl]-8-chloro-9-fluoro-2-methyl-3,16,22-triazatetracyclo[14.5.2.0^ {5,10}.0^{19,23}]tricosa-1(22),5(10),6,8,17,19(23),20-heptaen-4-one], the IC50 turned out to be 156 nM. Next, `COc1cc(C(=O)N2C[C@H](N)[C@@H]3CC[C@H]2C3)cc2nc(-c3cc4ccc5nc4n3CCCCCc3ccc(F)cc3C(=O)N[C@@H]5C)n(C)c12` [Example 899, (2~{R})-17-[5-[(1~{S},4~{R}, 5~{R})-4-amino-2-azabicyclo [3.2.1]octane-2-carbonyl]-7-methoxy-1-methyl-benzimidazol-2-yl]-7-fluoro-2-methyl-3,16,22-triazatetracyclo [14.5.2.0^{5,10}.0^{19,23}] tricosa-1(22),5(10),6,8,17, 19(23),20-heptaen-4-one]: 30 nM; `COc1cc(C(=O)N2C[C@H](N)[C@@H]3CC[C@H]2C3)cc2nc(-c3cc4ccc5nc4n3CCCCCc3cc(F)ccc3C(=O)N[C@@H]5C)n(C)c12` [Example 900, (2~{R})-17-[5-[(1~{S),4~{R}, 5~{R})-4-amino-2-azabicyclo [3.2.1]octane-2-carbonyl]-7-methoxy-1-methyl-benzimidazol-2-yl]-8-fluoro-2-methyl-3,16,22-triazatetracyclo[14.5.2.0^ {5,10}.0^{19,23}]tricosa-1(22),5(10),6,8,17,19(23),20-heptaen-4-one]: 28 nM. Regarding `COc1cc(C(=O)N2C[C@H](N)[C@@H]3CC[C@H]2C3)cc2nc(-c3cc4ccc5nc4n3CCCCCc3cc(Cl)ccc3C(=O)N[C@@H]5C)n(C)c12` [Example 901, (2~{R})-17-[5-[(1~{S),4~{R}, 5~{R})-4-amino-2-azabicyclo [3.2.1]octane-2-carbonyl]-7-methoxy-1-methyl-benzimidazol-2-yl]-8-chloro-2-methyl-3,16,22-triazatetracyclo [14.5.2.0^{5,10}.0^{19,23}] tricosa-1(22),5(10),6,8,17, 19(23),20-heptaen-4-one], the half-inhibitory concentration (IC50) is 59 nM.

With `COc1cc(C(=O)N2C[C@H](N)[C@@H]3CC[C@H]2C3)cc2nc(-c3cc4ccc5nc4n3CCCCCc3cccc(F)c3C(=O)N[C@@H]5C)n(C)c12` [Example 902, (2~{R})-17-[5-[(1~{S),4~{R}, 5~{R})-4-amino-2-azabicyclo [3.2.1]octane-2-carbonyl]-7-methoxy-1-methyl-benzimidazol-2-yl]-6-fluoro-2-methyl-3,16,22-triazatetracyclo [14.5.2.0^{5,10}.0^{19,23}] tricosa-1(22),5(10),6,8,17, 19(23),20-heptaen-4-one], the IC50 is 48 nM. Turning to `COc1cc(C(=O)N2C[C@H](N)[C@@H]3CC[C@H]2C3)cc2nc(-c3cc4ccc5nc4n3CCCCCc3c(F)ccc(F)c3C(=O)N[C@@H]5C)n(C)c12` [Example 903, (2~{R})-17-[5-[(1~{S},4~{R}, 5~{R})-4-amino-2-azabicyclo [3.2.1]octane-2-carbonyl]-7-methoxy-1-methyl-benzimidazol-2-yl]-6,9-difluoro-2-methyl-3,16,22-triazatetracyclo [14.5.2.0^{5,10}.0^{19,23}] tricosa-1(22),5(10),6,8,17, 19(23),20-heptaen-4-one], the IC50 came to 55 nM. For the compound `COc1cc(C(=O)N2C[C@H](N)[C@@H]3CC[C@H]2C3)cc2nc(-c3cc4ccc5nc4n3CCCCCOC3(CC3)C(=O)N[C@@H]5C)n(C3CC3)c12` [Example 904, (11~{R})-17-[5-[(1~{S),4~{R}, 5~{R})-4-amino-2-azabicyclo [3.2.1]octane-2-carbonyl]-1-cyclopropyl-7-methoxy-benzimidazol-2-yl]-11-methyl-spiro[7-oxa-1,10,19-triazatricyclo[10.5.2.0^{15,18}]nonadeca-12(19), 13,15(18),16-tetraene-8,1′-cyclopropane]-9-one], the IC50 amounted to 101 nM. Next, `COc1cc(C(=O)N2C[C@H](N)[C@@H]3CC[C@H]2C3)cc2nc(-c3cc4ccc5nc4n3CCCCCOC(C)(C)C(=O)N[C@@H]5C)n(C3CC3)c12` [Example 905, (11~{R})-17-[5-[(1~{S},4~{R}, 5~{R})-4-amino-2-azabicyclo [3.2.1]octane-2-carbonyl]-1-cyclopropyl-7-methoxy-benzimidazol-2-yl]-8,8,11-trimethyl-7-oxa-1,10,19-triazatricyclo[10.5.2.0^{15,18}] nonadeca-12(19), 13,15(18),16-tetraen-9-one]: 72 nM; `COc1cc(C(=O)N2C[C@H](N)[C@@H]3CC[C@H]2C3)cc2nc(-c3cc4ccc5nc4n3CCCCCc3c(ccc(F)c3F)C(=O)N[C@@H]5C)n(C)c12` [Example 906, (2~{R})-17-[5-[(1~{S},4~{R}, 5~{R})-4-amino-2-azabicyclo [3.2.1]octane-2-carbonyl]-7-methoxy-1-methyl-benzimidazol-2-yl]-8,9-difluoro-2-methyl-3,16,22-triazatetracyclo [14.5.2.0^{5,10).0^{19,23}] tricosa-1(22),5(10),6,8,17, 19(23),20-heptaen-4-one]: 55 nM. Next, `COc1cc(C(=O)N2C[C@H](N)[C@@H]3CC[C@H]2C3)cc2nc(-c3cc4ccc5nc4n3CCCCCCCN(C(C)=O)[C@@H]5C)n(C)c12` [Example 907]: 82 nM.
